Patent US7652028B2, “Indenoisoquinolinone analogs and methods of use thereof” (Inotek Pharmaceuticals Corporation, priority 2005, dated 2010)

Target: T1, PARP (Homo sapiens, UniProt P09874)
T1 construct: endogenous in cells; host or cells: A549 human alveolar epithelial adenocarcinoma cells
Assay: PARP activity in hydrogen peroxide-stimulated A549 cells, whole-cell based assay (3H-NAD+ incorporation)
Conditions: 15 min pretreatment (10 nM-300 nM), hydrogen peroxide-induced PARP activation, from dose-response curve
Procedure: Human alveolar epithelial cells (A549), an adenocarcinoma cell line with the alveolar type 2 phenotype were cultured in […] medium supplemented with 10% fetal bovine serum. Cells were grown to 80% confluence in 12-well plates and pretreated with various concentrations (10 nM-300 nM) of an Indenoisoquinolinone Analog for 15 minutes. Hydrogen peroxide, a prototypical oxidant that induces DNA single strand breakage, was used to induce PARP activation. Hydrogen peroxide was diluted in culture media and added to the cells in a bolus of 20 μl. After 20 minutes of incubation, the medium was aspirated and 0.5 mL of assay buffer (56 mM HEPES pH 7.5, 28 mM KCl, 28 mM NaCl, 2 mM MgCl2, 0.01% w/v digitonin and 0.5 μCi/ml 3H-NAD^+) was added to cells. Following incubation in the assay buffer (15 minutes at 37° C.), PARP activity was measured. Cells were scraped from the plate, transferred to a 1.5 mL eppendorf tube and then added 200 μl of ice cold 50% w/v TCA. […] The contents of the tubes were added to 6.5 mL ScintiSafe Plus scintillation liquid (Fisher Scientific) and radioactivity was determined using a liquid scintillation counter (Wallac, Gaithersburg, Md.). […] EC50 values were determined from a dose-response curve. IC50 values were determined using a commercially available in vitro PARP-1 inhibition assay kit (Trevigen, Gaithersburg, Md., USA).

T1 sequence (P09874 whole entry): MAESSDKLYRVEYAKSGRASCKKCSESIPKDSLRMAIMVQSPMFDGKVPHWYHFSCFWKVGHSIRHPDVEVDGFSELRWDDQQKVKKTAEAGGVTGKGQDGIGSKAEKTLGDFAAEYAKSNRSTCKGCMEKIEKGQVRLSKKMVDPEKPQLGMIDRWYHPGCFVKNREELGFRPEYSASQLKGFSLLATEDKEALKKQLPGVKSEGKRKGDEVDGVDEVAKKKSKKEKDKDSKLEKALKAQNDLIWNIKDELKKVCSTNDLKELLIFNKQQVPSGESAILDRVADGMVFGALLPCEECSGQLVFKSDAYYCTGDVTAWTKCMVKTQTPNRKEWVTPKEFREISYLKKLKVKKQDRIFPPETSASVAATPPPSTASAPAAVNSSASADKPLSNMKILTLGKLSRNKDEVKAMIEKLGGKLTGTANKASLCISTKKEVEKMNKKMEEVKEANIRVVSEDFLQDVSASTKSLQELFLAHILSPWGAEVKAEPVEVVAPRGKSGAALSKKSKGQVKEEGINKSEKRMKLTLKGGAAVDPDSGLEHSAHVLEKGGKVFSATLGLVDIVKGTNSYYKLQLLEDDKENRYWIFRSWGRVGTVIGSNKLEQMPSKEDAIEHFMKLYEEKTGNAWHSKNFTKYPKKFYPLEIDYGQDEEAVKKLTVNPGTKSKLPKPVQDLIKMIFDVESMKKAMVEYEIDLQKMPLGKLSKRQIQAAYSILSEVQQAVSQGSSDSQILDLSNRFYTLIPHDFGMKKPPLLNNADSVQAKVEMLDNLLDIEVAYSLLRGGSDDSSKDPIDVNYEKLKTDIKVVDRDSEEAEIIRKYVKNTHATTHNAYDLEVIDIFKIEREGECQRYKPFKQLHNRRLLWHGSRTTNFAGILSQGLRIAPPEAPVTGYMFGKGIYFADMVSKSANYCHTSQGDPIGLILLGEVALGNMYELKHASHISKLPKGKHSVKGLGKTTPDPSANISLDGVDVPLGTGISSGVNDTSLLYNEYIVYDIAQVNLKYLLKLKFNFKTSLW

EC50: 290 nM
SMILES: O=c1[nH]c2c(c3ccccc13)Cc1c(CO)cccc1-2 [(I)(25), 10-hydroxymethyl-5,6-dihydro-5-oxo-11-H-indeno[1,2-c]isoquinoline]
